According to patent US20130344095A1, “METHOD OF USING CD1D OVER-EXPRESSION IN HUMAN DENDRITIC CELLS TO ENHANCE CD8+ T CELL-BASED AND INVARIANT NATURAL KILLER T CELL-BASED ANTITUMOR IMMUNITY” (priority 2011, published 2013):

Assays:
[1] = system: MART-1 peptide-specific CD8+ T cells; assay: Priming of MART-1 peptide-specific CD8+ T cells by H1.DCs (pentamer staining); format: cell-based, human; details: for T cell priming ability of CD1d-overexpressing H1.DCs: DCs treated 24 hours with 20 μM PPMP or 150 μM NB-DGJ one day after transduction
Method: (§1) The DCs were first transduced by BV-CMV.CD1d-WPRE and pulsed with or without 100 ng/ml α-GC for 24 h one day after transduction. Two days after transduction, the DCs were pulsed with 10 μg/ml MART-1 peptide for 4 h. After washing, 10^5 DCs were co-cultured with 10^6 HLA A2+ PBLs in complete RPMI 1640. After co-culture of 9 days, to detect antigen-specific CTLs, the samples were stained with APC mouse anti-human CD3, FITC-labeled anti-CD8 (ProImmune) and R-PE-labeled A*0201/[…] Pentamer (ProImmune) and analyzed by FACSAria flow cytometer. In some experiments, the CD1d-overexpressing human DCs were pretreated with anti-CD1d blocking antibody (eBioscience, San Diego, Calif.) or its isotype control (eBiosciecne) before applying for T cell priming. To study the effect of glycolipid biosynthesis inhibition on T cell priming, the BVCD1d-transduced human DCs were treated with 20 μM DL-threo-1-Phenyl-2-palmitoylamino-3-morpholino-1-propanol (PPMP; Sigma-Aldrich) or 150 μM N-(n-Butyl)deoxygalactonojirimycin (NB-DGJ; Merck KGaA, Darmstadt, Germany) for 24 hours one day after transduction. In other experiments, the cocultures were restimulated with 10^5 MART-1 peptide-pulsed DCs on day 9 of coculture and analyzed one week after restimulation. To measure antigen-specific CTL activity, the cocultures were stimulated for the third time on day 7 after second stimulation with 10^5 MART-1 peptide-pulsed DCs and used as effectors for lysis of tumor cells one week later.

[2] = system: MART-1 peptide-specific CD8+ T cells; assay: Priming of MART-1 peptide-specific CD8+ T cells by moDCs (pentamer staining); format: cell-based, human; details: DCs treated 24 hours with 20 μM PPMP or 150 μM NB-DGJ one day after transduction
Method: as §1, with “To measure antigen-specific CTL activity, the cocultures were stimulated for the third time on day 7 after second stimulation with 10^5 MART-1 peptide-pulsed DCs and used as effectors for lysis of tumor cells one week later.” left out

Row | Structure (SMILES) | T cell priming ability of CD1d-overexpressing H1.DCs [1] | T cell priming ability of CD1d-overexpressing moDCs [2] | priming ability of CD1d-overexpressing H1.DCs with α-GC loading ([1]; compared with those without α-GC loading (p<0.04)) | effect of α-GC loading on priming of antigen-specific CD8+ T cells ([1]; mock-transduced, BV-PacPAK6-transduced and CD1d-overexpressing H1.DCs, 100 ng/ml α-GC)
1 | CCCCCCCCCCCCCCCC(=O)N[C@H](CN1CCOCC1)[C@H](O)c1ccccc1 (racemic) [PPMP, DL-threo-1-Phenyl-2-palmitoylamino-3-morpholino-1-propanol] | inhibited | inhibited |  | 
2 | CCCCN1C[C@H](O)[C@@H](O)[C@@H](O)[C@H]1CO [NB-DGJ, N-(n-Butyl)deoxygalactonojirimycin] | inhibited | inhibited |  | 
3 | CCCCCCCCCCCCCCCCCCCCCCCCCC(=O)N[C@@H](CO[C@H]1O[C@H](CO)[C@H](O)[C@H](O)[C@H]1O)[C@H](O)[C@H](O)CCCCCCCCCCCCCC [α-GC, α-galactosylceramide] |  |  | significantly decreased | no obvious beneficial effect
